Measurements from PMC4835877, “HM71224, a novel Bruton’s tyrosine kinase inhibitor, suppresses B cell and monocyte activation and ameliorates arthritis in a mouse model: a potential drug for rheumatoid arthritis” (Arthritis Research & Therapy, 2016).
pIC50: −log10 of the molar value.

Key:
[1] = test system: phosphorylation of Btk and PLCγ2 in Ramos cells; test: BCR signaling in anti-IgM stimulated Ramos cells (immunoblot); type: cell-based, human
Experimental: Ramos cells or human B cells were pretreated with the indicated concentrations of HM71224 and then stimulated with anti-IgM F(ab’)2 (Southern Biotech, Birmingham, AL, USA) for 10 minutes on ice. Cells were then lysed in RIPA buffer (Sigma-Aldrich), and the proteins were separated by SDS-PAGE (Bio-Rad Laboratories, Hercules, CA, USA), transferred onto polyvinylidene fluoride (PVDF) membranes, and immunoblotted with anti-pBtk Y223 (catalog number 5082; Cell Signaling Technology, Danvers, MA, USA), anti-pPLCγ2 Y759 (catalog number 3874; Cell Signaling Technology), anti-pPLCγ2 Y1217 (Cell Signaling Technology), anti-pERK T202/204 (197G2; Cell Signaling Technology), anti-Btk (C82B8; Cell Signal Technology), anti-PLCγ2 (catalog number 3872; Cell Signal Technology), anti-ERK1/2 (3A7; Cell Signaling Technology), and anti-GAPDH (FL-335; Santa Cruz Biotechnology, Santa Cruz, TX, USA) antibodies.
The Ramos B cell lymphoma cell line was chosen to study the inhibitory effects of HM71224 on the BCR signaling cascade as it endogenously expresses Btk [14]. […] Ramos cells were incubated with 100 nM HM71224 for 1 h. After washing, the cells were stimulated with anti-IgM F(ab’)2.

BTK [2] = biological target: T1, BTK (Homo sapiens, UniProt Q06187); test: Btk occupancy in human PBMCs (biotinylated probe); type: cell-based; settings: primary human cells (PBMCs), 100 nM
Experimental: After treatment with HM71224, cells were lysed and then incubated for 1 h with 1 μM of biotinylated probe (HM71224 derivative). The lysed cells were loaded into streptavidin-coated wells and then incubated with an anti-Btk antibody (1:1000; clone number D3H5, Cell signaling Technology, Danvers, MA, USA) for 1 h, followed by a secondary HRP-conjugated antibody (1:10000; EMD Millipore Corporation, Billerica, MA, USA) at room temperature for 1 h. After washing, 100 μL of colorimetric solution (R&D systems, Minneapolis, MN, USA) was added, and the reaction was stopped 30 minutes later by addition of 100 μL of sulfuric acid (0.2 moles/L). The plate was read with the absorbance reader at 450 nm.
To measure Btk occupancy by immunoprecipitation (IP), biotinylated HM71224 probes were preincubated with cell lysates for 1 h at 4 °C. Streptavidin-coated beads were then added, and the mixture was incubated overnight at 4 °C. Immunoblotting was then performed, and band density was measured using MultiGauge V3.0 software (FUJI FILM, Tokyo, Japan). Untreated biotinylated probes were set at 100 %.

BTK [3] = biological target: T1, BTK; test: Kinome Binding Tree Spot analysis, Scan Max (DiscoveRx); parameters: purchased DiscoveRx (Scan Max panel); settings: concentration of 2 μM
[4] = test system: human plasmacytoid dendritic cells; test: Cytokine production by human PDCs stimulated with CpG ODN or LPS (ELISA); type: cell-based; settings: CpG ODN (TLR9 agonist), 1 μM, 48 h
Experimental: Human monocytes were stimulated with heat-inactivated ICs at 37 °C for 30 minutes in the presence of increasing concentrations of HM71224. Human PDCs were stimulated with lipopolysaccharide (LPS) or CpG ODN 2006 (ThermoFisher Scientific) for 48 h in the absence or presence of HM71224 (1 μM). The production of tumor necrosis factor (TNF)-α, interleukin (IL)-1β, and IL-6 was then measured using a commercial ELISA (R&D Systems). […] The levels of the indicated cytokines in the culture supernatant were then measured by ELISA at 5 h post stimulation. […] The levels of the indicated cytokines in the culture supernatant were then measured by ELISA at 48 h post stimulation.*P < 0.05, **P < 0.01, and ***P < 0.001 vs. no treatment. LPS lipopolysaccharide

[5] = test system: murine bone marrow-derived macrophages; test: Osteoclast formation from murine BMMs (TRAP staining); type: cell-based, mouse; settings: M-CSF and RANKL, 4 days
[6] = test system: DBA/1 J mice with collagen-induced arthritis; test: Collagen-induced arthritis (CIA) model; type: in vivo, mouse
Experimental: All animal experimental protocols were approved by the animal care and use committee of the Hanmi Research Center, and performed in accordance with approved guidelines. Male DBA/1 J mice (9 weeks old; n = 7 per group) were immunized with an emulsion of Complete Freund’s Adjuvant and bovine type II collagen (CII) (total volume, 0.07 mL) via intradermal injection at the base of the tail (day 0). Three weeks later, the mice received a booster immunization comprising bovine CII emulsified in Incomplete Freund’s Adjuvant. […] The arthritis score and body weight were measured three times per week for 2 weeks after administration of the drugs (Additional file 1: Figure S1). The arthritis score was determined by grading each paw from 0 to 4 based on erythema, swelling, and flexion of the joint and was expressed as the sum of the scores of all four paws. Serum levels of IL-6 were measured by Luminex analysis in a bead-based immunoassay (EMD Millipore Corporation). Serum levels of anti-CII and total IgG were measured by ELISA (Chondrex, Seattle, WA, USA; Bethyl Laboratories, Montgomery, TX, USA).
Micro-CT of the hind limbs was performed using a Siemens Inveon Micro-CT/PET scanner (Siemens Medical Solutions, Knoxville, TN, USA).
The hind legs of each mouse were fixed with 10 % formalin, decalcified in 5 % formic acid, and embedded in paraffin. Sections were then cut and stained with hematoxylin and eosin (H&E). The bone erosion index was scored from 0 to 4 according to the following criteria: 0 = no erosion, 1 = mild (focal subchondral erosion), 2 = moderate (multiple subchondral erosions), 3 = high (as above and focal erosion of talus), and 4 = maximum (multiple erosions of tarsal and metatarsal bones).
Figure S1. Experiment design of collagen induced arthritis. Untreated DBA/1J mice (n=7) served as healthy controls (Ctrl). DBA/1J mice (n= 56) were immunized Day 0 and day 21. On day 10 after boosting (i.e. day 31), the induction of CIA was evaluated. […] Immunized mice (n=42) were divided into 6 groups (n=7 in each group). […] CIA, collagen induced arthritis.

JAK3 = JAK3 (Homo sapiens, UniProt P52333); test: biochemical
[7] = test system: phosphorylation of Btk, PLC-γ2, Erk; test: Phospho-flow cytometry of BCR-crosslinked human PBMCs; type: cell-based; settings: anti-IgM F(ab')2
Experimental: For phospho-flow, B cells were activated by crosslinking their BCRs with anti-human IgM antibodies (10 μg/mL; BD Biosciences) for 10 minutes at 37 °C. Cells were then fixed with 2 % paraformaldehyde at 37 °C for 12 minutes, permeabilized, and stained with anti-CD3-FITC (SK7; BD Biosciences), anti-CD20-PerCP-Cy5.5 (H1; BD Biosciences), anti-pBtk (Y223)-Alexa647 (N35-86; BD Biosciences), anti-pPLCγ2 (Y759)-Alexa647 (K86-689.37; BD Biosciences), anti-pSTAT1 (Y701)-Alexa647 (4a; BD Biosciences), anti-pSTAT3 (Y705)-Alexa647 (4/P-STAT3; BD Biosciences), anti-pSTAT5 (Y694)-Alexa647 (47; BD Biosciences), and anti-pERK1/2 (T202/204)-Alexa647 (20A; BD Biosciences) antibodies. The cells were then washed and analyzed on an LSR II flow cytometer (BD Biosciences). Data were analyzed using FlowJo software, version 8.8 (Treestar, Ashland, OR, USA).

T1 sequence (Q06187 whole entry): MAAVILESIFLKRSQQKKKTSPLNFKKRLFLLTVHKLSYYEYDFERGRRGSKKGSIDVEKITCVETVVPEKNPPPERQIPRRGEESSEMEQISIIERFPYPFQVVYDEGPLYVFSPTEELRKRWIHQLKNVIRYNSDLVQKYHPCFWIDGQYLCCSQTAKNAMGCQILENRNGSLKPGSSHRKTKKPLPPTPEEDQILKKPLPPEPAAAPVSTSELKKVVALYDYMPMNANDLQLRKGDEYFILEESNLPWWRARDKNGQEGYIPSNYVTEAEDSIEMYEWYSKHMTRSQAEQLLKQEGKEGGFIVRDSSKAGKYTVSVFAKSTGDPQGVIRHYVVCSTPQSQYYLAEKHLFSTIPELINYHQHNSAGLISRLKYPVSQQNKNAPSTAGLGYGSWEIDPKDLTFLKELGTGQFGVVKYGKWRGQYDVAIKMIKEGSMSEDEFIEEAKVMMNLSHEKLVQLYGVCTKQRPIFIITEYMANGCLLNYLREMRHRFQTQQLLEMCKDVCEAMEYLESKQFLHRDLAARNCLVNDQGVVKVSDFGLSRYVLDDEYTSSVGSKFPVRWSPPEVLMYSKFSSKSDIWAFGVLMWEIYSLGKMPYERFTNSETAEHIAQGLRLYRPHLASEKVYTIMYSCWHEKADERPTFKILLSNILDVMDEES
Sequence of JAK3 (P52333 whole entry): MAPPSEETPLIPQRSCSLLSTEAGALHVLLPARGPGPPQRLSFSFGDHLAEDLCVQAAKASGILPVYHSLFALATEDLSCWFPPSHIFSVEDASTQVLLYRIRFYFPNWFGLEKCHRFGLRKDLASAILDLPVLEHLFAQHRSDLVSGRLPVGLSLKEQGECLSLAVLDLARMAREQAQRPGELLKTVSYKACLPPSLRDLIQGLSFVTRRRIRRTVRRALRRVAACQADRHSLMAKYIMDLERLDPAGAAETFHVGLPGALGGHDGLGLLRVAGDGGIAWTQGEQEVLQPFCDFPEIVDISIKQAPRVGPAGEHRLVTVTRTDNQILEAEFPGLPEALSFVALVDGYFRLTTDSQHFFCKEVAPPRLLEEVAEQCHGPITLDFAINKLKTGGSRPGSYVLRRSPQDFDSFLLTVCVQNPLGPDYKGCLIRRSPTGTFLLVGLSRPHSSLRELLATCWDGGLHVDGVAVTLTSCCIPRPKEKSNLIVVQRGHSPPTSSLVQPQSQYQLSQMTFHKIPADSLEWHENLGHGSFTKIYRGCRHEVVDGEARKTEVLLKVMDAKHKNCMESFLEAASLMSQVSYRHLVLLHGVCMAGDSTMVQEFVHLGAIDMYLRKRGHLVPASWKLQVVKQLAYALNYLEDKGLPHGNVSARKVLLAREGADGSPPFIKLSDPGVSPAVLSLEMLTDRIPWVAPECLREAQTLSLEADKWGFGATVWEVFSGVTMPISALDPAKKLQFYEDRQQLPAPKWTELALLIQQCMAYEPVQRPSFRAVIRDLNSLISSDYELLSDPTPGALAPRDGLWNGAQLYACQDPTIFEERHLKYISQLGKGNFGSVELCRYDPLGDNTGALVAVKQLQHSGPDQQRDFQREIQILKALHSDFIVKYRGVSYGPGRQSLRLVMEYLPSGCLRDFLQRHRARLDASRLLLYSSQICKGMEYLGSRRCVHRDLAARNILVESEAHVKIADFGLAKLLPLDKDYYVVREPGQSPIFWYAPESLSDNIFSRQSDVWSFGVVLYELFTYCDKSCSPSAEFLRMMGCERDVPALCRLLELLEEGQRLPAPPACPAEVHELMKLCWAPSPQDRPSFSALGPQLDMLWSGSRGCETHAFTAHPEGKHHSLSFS

In the case of `C=CC(=O)Nc1cccc(Oc2nc(Nc3ccc(N4CCN(C)CC4)cc3)nc3ccoc23)c1` [HM71224], the “Duration of inhibition of BTK phosphorylation after washout” value ([1]; 100 nM for 1 h, washed, then anti-IgM F(ab')2) was “at least 24 h”, the “Phosphorylation of Btk and PLCγ2” value ([1]; anti-IgM F(ab')2) was “decreased markedly” and the Btk sites occupied (BTK [2]) was > 70%. The Kinome binding selectivity (BTK [3]) was “selectively bound to Btk”, the “CpG-mediated production of TNF-α and IL-6” value [4] was “inhibited CpG-mediated cytokine production” and the “Osteoclast formation from murine BMMs” value [5] was “inhibited osteoclast formation from murine BMMs”. The “Levels of circulating anti-collagen antibodies vs untreated group” value ([6]; CIA mice) was “significantly lower”, the “Serum IL-6 levels vs untreated group” value ([6]; CIA mice) was “significantly lower” and the “Total IgG level” value ([6]; CIA mice) was “tended to be lower”. For the same compound, the “Erosive bone changes and bone loss” value ([6]; CIA mice, H&E section) was “markedly reduced erosive bone changes and prevented bone loss”, the Weight loss ([6]; dose of 3 mg/kg or higher) was “prevented weight loss” and the “AS, arthritis score” value ([6]; oral 1mg/kg once a day, D0) was 1.1±0.7. The “Wt, weight” value ([6]; oral 1mg/kg once a day, D0) was 22.7±0.5 gram, the “AS, arthritis score” value ([6]; oral 1mg/kg once a day, D1) was 1.1±0.7 and the “Wt, weight” value ([6]; oral 1mg/kg once a day, D1) was 22.5±0.5 gram. The “AS, arthritis score” value ([6]; oral 1mg/kg once a day, D4) was 1.9±0.9, the “Wt, weight” value ([6]; oral 1mg/kg once a day, D4) was 22.2±0.6 gram and the “AS, arthritis score” value ([6]; oral 1mg/kg once a day, D6) was 2.1±1.1. For the same compound, the “Wt, weight” value ([6]; oral 1mg/kg once a day, D6) was 21.9±0.5 gram, the “AS, arthritis score” value ([6]; oral 1mg/kg once a day, D8) was 2.9±1.1 and the “Wt, weight” value ([6]; oral 1mg/kg once a day, D8) was 22.1±0.5 gram. The “AS, arthritis score” value ([6]; oral 1mg/kg once a day, D12) was 5.0±1.0, the “Wt, weight” value ([6]; oral 1mg/kg once a day, D12) was 21.6±0.5 gram and the “AS, arthritis score” value ([6]; oral 1mg/kg once a day, D13) was 6.6±0.7. The “Wt, weight” value ([6]; oral 1mg/kg once a day, D13) was 21.4±0.4 gram, the “AS, arthritis score” value ([6]; oral 1mg/kg once a day, D15) was 6.6±0.9 and the “Wt, weight” value ([6]; oral 1mg/kg once a day, D15) was 21.2±0.3 gram. The “AS, arthritis score” value ([6]; oral 3mg/kg once a day, D0) was 1.1±0.3, the “Wt, weight” value ([6]; oral 3mg/kg once a day, D0) was 22.7±0.4 gram and the “AS, arthritis score” value ([6]; oral 3mg/kg once a day, D1) was 1.3±0.7. The “Wt, weight” value ([6]; oral 3mg/kg once a day, D1) was 22.3±0.5 gram, the “AS, arthritis score” value ([6]; oral 3mg/kg once a day, D4) was 1.9±0.6 and the “Wt, weight” value ([6]; oral 3mg/kg once a day, D4) was 22.2±0.4 gram. For the same compound, the “AS, arthritis score” value ([6]; oral 3mg/kg once a day, D6) was 1.9±0.6, the “Wt, weight” value ([6]; oral 3mg/kg once a day, D6) was 22.4±0.4 gram and the “AS, arthritis score” value ([6]; oral 3mg/kg once a day, D8) was 2.0±0.7. The “Wt, weight” value ([6]; oral 3mg/kg once a day, D8) was 22.5±0.4 gram, the “AS, arthritis score” value ([6]; oral 3mg/kg once a day, D12) was 3.1±0.9 and the “Wt, weight” value ([6]; oral 3mg/kg once a day, D12) was 22.6±0.4 gram. For the same compound, the “AS, arthritis score” value ([6]; oral 3mg/kg once a day, D13) was 3.4±1.2, the “Wt, weight” value ([6]; oral 3mg/kg once a day, D13) was 22.6±0.4 gram and the “AS, arthritis score” value ([6]; oral 3mg/kg once a day, D15) was 3.4±1.4. For the same compound, the “Wt, weight” value ([6]; oral 3mg/kg once a day, D15) was 22.5±0.4 gram, the “AS, arthritis score” value ([6]; oral 10mg/kg once a day, D0) was 1.1±0.6 and the “Wt, weight” value ([6]; oral 10mg/kg once a day, D0) was 23.0±0.2 gram. For the same compound, the “AS, arthritis score” value ([6]; oral 10mg/kg once a day, D1) was 0.9±0.3, the “Wt, weight” value ([6]; oral 10mg/kg once a day, D1) was 22.8±0.3 gram and the “AS, arthritis score” value ([6]; oral 10mg/kg once a day, D4) was 0.4±0.2. The “Wt, weight” value ([6]; oral 10mg/kg once a day, D4) was 23.2±0.3 gram, the “AS, arthritis score” value ([6]; oral 10mg/kg once a day, D6) was 0.6±0.4 and the “Wt, weight” value ([6]; oral 10mg/kg once a day, D6) was 23.0±0.3 gram. The “AS, arthritis score” value ([6]; oral 10mg/kg once a day, D8) was 0.6±0.3, the “Wt, weight” value ([6]; oral 10mg/kg once a day, D8) was 23.2±0.3 gram and the “AS, arthritis score” value ([6]; oral 10mg/kg once a day, D12) was 1.0±0.4. The “Wt, weight” value ([6]; oral 10mg/kg once a day, D12) was 23.5±0.3 gram, the “AS, arthritis score” value ([6]; oral 10mg/kg once a day, D13) was 0.7±0.4 and the “Wt, weight” value ([6]; oral 10mg/kg once a day, D13) was 23.8±0.3 gram. For the same compound, the “AS, arthritis score” value ([6]; oral 10mg/kg once a day, D15) was 0.7±0.4, the “Wt, weight” value ([6]; oral 10mg/kg once a day, D15) was 23.9±0.3 gram and the “AS, arthritis score” value ([6]; oral 30mg/kg once a day, D0) was 1.1±0.5. The “Wt, weight” value ([6]; oral 30mg/kg once a day, D0) was 22.6±0.5 gram, the “AS, arthritis score” value ([6]; oral 30mg/kg once a day, D1) was 0.9±0.3 and the “Wt, weight” value ([6]; oral 30mg/kg once a day, D1) was 22.0±0.5 gram. The “AS, arthritis score” value ([6]; oral 30mg/kg once a day, D4) was 0.3±0.2, the “Wt, weight” value ([6]; oral 30mg/kg once a day, D4) was 22.1±0.4 gram and the “AS, arthritis score” value ([6]; oral 30mg/kg once a day, D6) was 0.3±0.2. For the same compound, the “Wt, weight” value ([6]; oral 30mg/kg once a day, D6) was 22.1±0.4 gram, the “AS, arthritis score” value ([6]; oral 30mg/kg once a day, D8) was 0.4±0.2 and the “Wt, weight” value ([6]; oral 30mg/kg once a day, D8) was 22.4±0.4 gram. For the same compound, the “AS, arthritis score” value ([6]; oral 30mg/kg once a day, D12) was 0.4±0.2, the “Wt, weight” value ([6]; oral 30mg/kg once a day, D12) was 22.5±0.4 gram and the “AS, arthritis score” value ([6]; oral 30mg/kg once a day, D13) was 0.4±0.3. For the same compound, the “Wt, weight” value ([6]; oral 30mg/kg once a day, D13) was 22.9±0.5 gram, the “AS, arthritis score” value ([6]; oral 30mg/kg once a day, D15) was 0.3±0.2 and the “Wt, weight” value ([6]; oral 30mg/kg once a day, D15) was 22.8±0.4 gram. For the same compound, the “Arthritis score vs untreated CIA mice” value ([6]; oral once a day for 2 weeks, P < 0.05 at 10 mg/kg, P < 0.01 at 30 mg/kg) was “lower arthritis scores than untreated CIA mice”, the pIC50 (JAK3) was 7.84 and the “Phosphorylation of Btk and Erk by phospho-flow” value [7] was “inhibited phosphorylation of BTK, and p-Erk in a dose-dependent manner”.
